Results published in patent publication US8466291B2, “1,5-dideoxy-1,5-imino-D-glucitol compounds” (Academia Sinica, priority 2008, dated 2013).

Legend:
Human HEX B = target: T1, Human HEX B (Homo sapiens, UniProt P07686); test: Michaelis-Menten/Lineweaver-Burk kinetic inhibition of Hex B with 4MU-NAG substrate; assay type: biochemical
T1 construct: Hex B protein (isolated from human placenta) was purchased from Sigma Co; purchased Sigma Co; host or cells: human placenta
Description: Hex B protein (isolated from human placenta) was purchased from Sigma Co.
Both O-GlcNAcase and Hex B were subjected to Michaelis-Menton kinetic analysis to determine the kinetics of their enzymatic activity in the presence of absence of Compounds 1-5 and Compound ix, using 4-methylumbelliferyl-N-acetyl-β-D-glucosaminide (4MU-NAG; purchased from Sigma Co.) as the substrate (a fluorogenic substrate). The reaction conditions for each enzyme are shown below:
Hex B: reaction mixture (0.1 nM Hex B (200 μL), 50 mM NaH2PO4, 100 mM NaCl, 0.1% BSA, 0.05-1.5 mM substrate, pH 6.5) was incubated at 30° C. for 25 minutes. The reaction was terminated by addition of a 3× quenching buffer (200 mM sodium glycine buffer, pH 10.8). The enzyme activity was determined as described above.
To determine the effects of Compounds 1-5 and Compound ix on the kinetics of both enzymes, the enzyme reactions described above were performed in the presence of each compound at different concentrations. In these reactions, the substrate concentrations were three to five fold of the concentration used for determining KM (absent compounds) and the ratio between the enzyme and the compound was 0.1-0.5 nM to 0.3 nM-200 uM. The data thus obtained were analyzed by the Lineweaver-Burk plot. The K1 values were determined by the double reciprocal plot (1/V vs. 1/[S]). More specifically, the Km values for each enzyme in the presence of one of the test compounds first determined and these values were further plotted in view of the concentrations of the compound. K1 was determined by calculating the negative value of the resulting x-intercept. The selectivity of each compound was calculated by the formula: K1 O-GlcNAcase/K1 Hex B.

human Hex B (FLAG-HexB) = target: T2, human Hex B (FLAG-HexB) (Homo sapiens, UniProt P07686); test: Immunoprecipitation / streptavidin pull-down and Western blot from 293T/FLAG-HexB cell lysate; assay type: binding; conditions: 200 nM, room temperature 10 min
T2 construct: FLAG (N); expressed in transfected cells
T2 sequence (P07686 122-556): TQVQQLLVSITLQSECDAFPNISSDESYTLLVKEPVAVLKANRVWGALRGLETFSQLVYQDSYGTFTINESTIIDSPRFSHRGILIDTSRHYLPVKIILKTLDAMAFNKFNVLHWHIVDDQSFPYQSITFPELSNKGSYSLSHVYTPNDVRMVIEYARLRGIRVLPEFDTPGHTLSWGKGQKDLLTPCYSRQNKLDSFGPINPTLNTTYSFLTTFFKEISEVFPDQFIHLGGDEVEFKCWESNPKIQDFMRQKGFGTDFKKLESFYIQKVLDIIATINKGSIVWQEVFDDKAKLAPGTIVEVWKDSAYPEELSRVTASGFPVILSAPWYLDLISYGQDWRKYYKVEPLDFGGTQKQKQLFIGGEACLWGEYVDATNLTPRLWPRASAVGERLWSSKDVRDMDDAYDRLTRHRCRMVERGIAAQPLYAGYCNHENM
Description: A DNA fragment encoding human Hex B was amplified by PCR and cloned into pCMV-Tag 2B vector (Stratagene) to produce FLAG-tagged HexB expression plasmid (pFLAG-HexB). This plasmid was introduced into 293T cells to establish a cell line stably expressing FLAG-HexB. Briefly, 293T cells were maintained in Dulbecco's modified Eagle's medium (DMEM) supplemented with 10% (by volumn) heat inactivated fetal bovine serum (FBS), 2 mM glutamine, 100 units/mL penicillin and 100 μg/mL streptomycin at 37° C. in a 5% CO2 atmosphere. These cells were transfected with expression plasmid pFLAG-HexB and plasmid pBabe-puro (carrying a puromycin resistance gene) at a molar ratio of 30-40:1. 8 hours later, the transfected cells were fed with fresh medium and incubated for 16 h. These cells were then cultured in puromycin-containing (2 μg/mL) medium for 2-3 weeks to screen for puromycin-resistant clones.
Binding of Compound 5 to FLAG-HexB were further confirmed by immuno-precipitation and Westernblot assays. The 293T/FLAG-HexB cells were lysed with a lysis buffer containing 1% NP-40, 10 mM Tris-HCl at pH 7.4, 150 mM NaCl, 2 mM EDTA, 1 mM phenylmethylsulfonyl fluoride, and a proteinase inhibitor cocktail (Sigma), and the cell lysate was then incubated at room temperature for 10 min in the presence or absence of Compound 5 (200 nM). […]

T1 sequence (P07686 50-107 partner limits assumed, one chain of several): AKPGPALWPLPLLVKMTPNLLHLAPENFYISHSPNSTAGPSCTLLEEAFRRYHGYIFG

`CC(=O)NC1CN(CCCCCCCNC(=O)CCCCC2SCC3NC(=O)NC32)C(CO)C(O)C1O` (stereo not drawn) [Compound 5] was tested, and the Ki (Human HEX B; Table 1) was 26.7 ± 1.11 nM, the Ki (Human HEX B; Table 2) was 26.7 ± 1.11 nM and the “association of FLAG-HexB with compound (streptavidin-agarose beads)” value (human Hex B (FLAG-HexB)) was “FLAG-HexB protein was attached to the streptavidin-agarose beads”.
